Values after ≈ are worked out from the molar mass of the structure shown.
Tests used:
[1] = Permeability across rabbit cornea; format: ADME, tissue-based, Oryctolagus cuniculus
physchem [2] = settings: citric acid-Na2HPO4 buffer, pH 4.12
Description: Solubility in citric acid-Na2HPO4 buffer at pH 4.12

physchem [3] = settings: citric acid-Na2HPO4 buffer, pH 4.12; remark: listed apart in the source
Description: Solubility in citric acid-Na2HPO4 buffer at pH 4.12 in presence of 0.0226 mol/l hydroxypropyl-beta-cyclodextrin

physchem [4] = settings: citric acid-Na2HPO4 buffer, pH 4.12; remark: listed apart in the source
Description: Solubility in citric acid-Na2HPO4 buffer at pH 4.12 in presence of 0.0302 mol/l hydroxypropyl-beta-cyclodextrin

physchem [5] = settings: citric acid-Na2HPO4 buffer, pH 4.12; remark: listed apart in the source
Description: Solubility in citric acid-Na2HPO4 buffer at pH 4.12 in presence of 0.0604 mol/l hydroxypropyl-beta-cyclodextrin

physchem [6] = settings: citric acid-Na2HPO4 buffer, pH 4.12; remark: listed apart in the source
Description: Solubility in citric acid-Na2HPO4 buffer at pH 4.12 in presence of 0.0755 mol/l hydroxypropyl-beta-cyclodextrin

physchem [7] = settings: citric acid-Na2HPO4 buffer, pH 4.12; remark: listed apart in the source
Description: Solubility in citric acid-Na2HPO4 buffer at pH 4.12 in presence of 0.1132 mol/l hydroxypropyl-beta-cyclodextrin

physchem [8] = settings: citric acid-Na2HPO4 buffer, pH 4.12; remark: listed apart in the source
Description: Solubility in citric acid-Na2HPO4 buffer at pH 4.12 in presence of 0.1660mol/l hydroxypropyl-beta-cyclodextrin

physchem [9] = settings: water
physchem [10] = settings: water; remark: listed apart in the source
Description: Solubility in water in presence of 0.0151 mol/l hydroxypropyl-beta-cyclodextrin

physchem [11] = settings: water; remark: listed apart in the source
Description: Solubility in water in presence of 0.0302 mol/l hydroxypropyl-beta-cyclodextrin

physchem [12] = settings: water; remark: listed apart in the source
Description: Solubility in water in presence of 0.0604 mol/l hydroxypropyl-beta-cyclodextrin

physchem [13] = settings: water; remark: listed apart in the source
Description: Solubility in water in presence of 0.0755 mol/l hydroxypropyl-beta-cyclodextrin

physchem [14] = settings: water; remark: listed apart in the source
Description: Solubility in water in presence of 0.1132 mol/l hydroxypropyl-beta-cyclodextrin

physchem [15] = settings: NaOH-NaHCO3 buffer, pH 9.57
Description: Solubility in NaOH-NaHCO3 buffer at pH 9.57

physchem [16] = settings: NaOH-NaHCO3 buffer, pH 9.57; remark: listed apart in the source
Description: Solubility in NaOH-NaHCO3 buffer at pH 9.57 in presence of 0.0226 mol/l hydroxypropyl-beta-cyclodextrin

physchem [17] = settings: NaOH-NaHCO3 buffer, pH 9.57; remark: listed apart in the source
Description: Solubility in NaOH-NaHCO3 buffer at pH 9.57 in presence of 0.0302 mol/l hydroxypropyl-beta-cyclodextrin

physchem [18] = settings: NaOH-NaHCO3 buffer, pH 9.57; remark: listed apart in the source
Description: Solubility in NaOH-NaHCO3 buffer at pH 9.57 in presence of 0.0604 mol/l hydroxypropyl-beta-cyclodextrin

physchem [19] = settings: NaOH-NaHCO3 buffer, pH 9.57; remark: listed apart in the source
Description: Solubility in NaOH-NaHCO3 buffer at pH 9.57 in presence of 0.0755 mol/l hydroxypropyl-beta-cyclodextrin

physchem [20] = settings: NaOH-NaHCO3 buffer, pH 9.57; remark: listed apart in the source
Description: Solubility in NaOH-NaHCO3 buffer at pH 9.57 in presence of 0.1132 mol/l hydroxypropyl-beta-cyclodextrin

physchem [21] = settings: NaOH-NaHCO3 buffer, pH 9.57; remark: listed apart in the source
Description: Solubility in NaOH-NaHCO3 buffer at pH 9.57 in presence of 0.1660 mol/l hydroxypropyl-beta-cyclodextrin

physchem [22] = settings: water; remark: listed apart in the source
Description: Solubility in water in presence of 0.334 mol/l triethanolamine

physchem [23] = settings: water; remark: listed apart in the source
Description: Solubility in water in presence of 0.1001 mol/l triethanolamine

physchem [24] = settings: citric acid-Na2HPO4 buffer, pH 4.12; remark: listed apart in the source
Description: Solubility in citric acid-Na2HPO4 buffer at pH 4.12 in presence of 0.2 M hydroxypropyl-beta-cyclodextrin

physchem [25] = settings: NaOH-NaHCO3 buffer, pH 9.57; remark: listed apart in the source
Description: Solubility in NaOH-NaHCO3 buffer at pH 9.57 in presence of 0.2 M hydroxypropyl-beta-cyclodextrin

permeability [1]: 4.1 ×10⁻⁶ cm/s
solubility (physchem [2]): 850 µg/mL (≈ 3.82 mM)
solubility (physchem [3]): 1660 µg/mL (≈ 7.47 mM)
solubility (physchem [4]): 1830 µg/mL (≈ 8.23 mM)
solubility (physchem [5]): 2280 µg/mL (≈ 10.3 mM)
solubility (physchem [6]): 2960 µg/mL (≈ 13.3 mM)
solubility (physchem [7]): 3780 µg/mL (≈ 17 mM)
solubility (physchem [8]): 4970 µg/mL (≈ 22.4 mM)
solubility (physchem [9]): 810 µg/mL (≈ 3.64 mM)
solubility (physchem [10]): 1880 µg/mL (≈ 8.46 mM)
solubility (physchem [11]): 2440 µg/mL (≈ 11 mM)
solubility (physchem [12]): 4510 µg/mL (≈ 20.3 mM)
solubility (physchem [13]): 5530 µg/mL (≈ 24.9 mM)
solubility (physchem [14]): 7030 µg/mL (≈ 31.6 mM)
solubility (physchem [15]): 2770 µg/mL (≈ 12.5 mM)
solubility (physchem [16]): 3210 µg/mL (≈ 14.4 mM)
solubility (physchem [17]): 3620 µg/mL (≈ 16.3 mM)
solubility (physchem [18]): 4770 µg/mL (≈ 21.5 mM)
solubility (physchem [19]): 5290 µg/mL (≈ 23.8 mM)
solubility (physchem [20]): 5930 µg/mL (≈ 26.7 mM)
solubility (physchem [21]): 7020 µg/mL (≈ 31.6 mM)
solubility (physchem [22]): 3860 µg/mL (≈ 17.4 mM)
solubility (physchem [23]): 5910 µg/mL (≈ 26.6 mM)
solubility (physchem [24]): 4970 µg/mL (≈ 22.4 mM)
solubility (physchem [25]): 7020 µg/mL (≈ 31.6 mM)
SMILES: CC(=O)Nc1nnc(S(N)(=O)=O)s1 [ACETAZOLAMIDE]
